Molecular target: Voltage-dependent N-type calcium channel subunit alpha-1B (Homo sapiens, UniProt Q00975)
Assay: Inhibition of N-type calcium channel in IMR-32 human neuroblastoma cells
Assay type: cell-based

Sequence of Voltage-dependent N-type calcium channel subunit alpha-1B (Q00975 whole entry): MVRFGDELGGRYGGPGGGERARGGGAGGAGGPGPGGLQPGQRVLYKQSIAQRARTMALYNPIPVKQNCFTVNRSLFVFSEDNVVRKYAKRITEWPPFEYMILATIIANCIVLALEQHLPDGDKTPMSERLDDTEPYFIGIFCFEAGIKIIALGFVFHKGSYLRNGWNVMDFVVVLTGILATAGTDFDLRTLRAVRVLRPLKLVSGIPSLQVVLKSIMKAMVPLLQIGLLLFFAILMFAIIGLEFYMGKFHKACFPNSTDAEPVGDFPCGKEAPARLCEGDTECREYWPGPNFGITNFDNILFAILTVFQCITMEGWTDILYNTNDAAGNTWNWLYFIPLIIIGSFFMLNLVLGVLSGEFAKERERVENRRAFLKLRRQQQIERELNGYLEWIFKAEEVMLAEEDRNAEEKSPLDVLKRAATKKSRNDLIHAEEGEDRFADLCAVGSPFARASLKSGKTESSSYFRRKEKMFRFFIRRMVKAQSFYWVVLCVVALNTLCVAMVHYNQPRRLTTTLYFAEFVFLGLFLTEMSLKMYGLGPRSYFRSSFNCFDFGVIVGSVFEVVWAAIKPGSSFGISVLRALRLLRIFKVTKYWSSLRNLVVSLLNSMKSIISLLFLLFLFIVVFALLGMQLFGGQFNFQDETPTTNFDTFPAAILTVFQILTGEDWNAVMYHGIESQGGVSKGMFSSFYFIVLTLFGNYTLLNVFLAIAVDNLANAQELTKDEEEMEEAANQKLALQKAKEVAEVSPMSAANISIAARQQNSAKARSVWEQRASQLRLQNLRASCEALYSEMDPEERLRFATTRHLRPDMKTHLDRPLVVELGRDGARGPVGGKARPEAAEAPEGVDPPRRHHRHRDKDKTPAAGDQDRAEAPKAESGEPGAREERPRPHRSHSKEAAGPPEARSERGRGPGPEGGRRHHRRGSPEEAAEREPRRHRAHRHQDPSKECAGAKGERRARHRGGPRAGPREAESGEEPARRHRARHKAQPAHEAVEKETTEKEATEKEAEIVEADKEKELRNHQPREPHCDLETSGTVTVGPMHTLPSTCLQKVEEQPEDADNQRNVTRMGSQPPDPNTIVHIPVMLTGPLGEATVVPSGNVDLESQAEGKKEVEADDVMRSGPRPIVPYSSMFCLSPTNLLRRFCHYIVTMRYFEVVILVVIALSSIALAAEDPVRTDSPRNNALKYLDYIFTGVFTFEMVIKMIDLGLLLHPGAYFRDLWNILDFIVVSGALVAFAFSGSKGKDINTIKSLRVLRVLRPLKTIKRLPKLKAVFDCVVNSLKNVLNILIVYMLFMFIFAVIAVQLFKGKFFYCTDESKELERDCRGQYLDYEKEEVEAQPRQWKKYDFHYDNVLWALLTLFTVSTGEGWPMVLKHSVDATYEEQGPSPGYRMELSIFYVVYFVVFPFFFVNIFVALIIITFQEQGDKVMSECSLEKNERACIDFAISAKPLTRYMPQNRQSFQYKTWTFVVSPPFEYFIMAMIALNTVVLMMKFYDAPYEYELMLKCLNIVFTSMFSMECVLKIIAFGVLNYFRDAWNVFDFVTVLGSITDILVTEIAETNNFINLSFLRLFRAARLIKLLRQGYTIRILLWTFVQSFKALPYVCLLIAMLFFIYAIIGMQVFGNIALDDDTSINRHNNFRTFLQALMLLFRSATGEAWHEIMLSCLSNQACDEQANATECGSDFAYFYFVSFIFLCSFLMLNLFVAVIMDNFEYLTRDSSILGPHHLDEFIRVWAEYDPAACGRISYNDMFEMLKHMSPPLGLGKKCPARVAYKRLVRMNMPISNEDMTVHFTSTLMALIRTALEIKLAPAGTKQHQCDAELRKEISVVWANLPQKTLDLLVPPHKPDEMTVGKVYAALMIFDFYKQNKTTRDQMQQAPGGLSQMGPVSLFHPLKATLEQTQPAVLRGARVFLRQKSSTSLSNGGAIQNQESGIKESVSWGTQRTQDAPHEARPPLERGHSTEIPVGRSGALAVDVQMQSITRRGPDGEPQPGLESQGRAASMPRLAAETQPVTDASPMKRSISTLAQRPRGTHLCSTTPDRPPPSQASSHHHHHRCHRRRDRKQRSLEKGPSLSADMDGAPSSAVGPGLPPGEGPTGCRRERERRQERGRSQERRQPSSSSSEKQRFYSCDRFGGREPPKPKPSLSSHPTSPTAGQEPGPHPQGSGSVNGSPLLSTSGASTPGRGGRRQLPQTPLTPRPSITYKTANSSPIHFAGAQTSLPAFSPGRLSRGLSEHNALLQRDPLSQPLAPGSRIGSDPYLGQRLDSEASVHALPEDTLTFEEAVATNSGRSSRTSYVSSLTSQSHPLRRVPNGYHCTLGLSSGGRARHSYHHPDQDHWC

Row | Compound | IC50 [µM]
1 | Oc1c(CN2CCCCC2)cc(Cc2cc(CN3CCCCC3)c(O)c3ncccc23)c2ccncc12 | 4.4
2 | COc1ccc(CCCCN2CCc3c(ccc(CN4CCCCCC4)c3O)C2)cc1 | 10
3 | Oc1c(CN2CCCCCC2)ccc2cnccc12 | 35
4 | CN1CCc2c(ccc(CN3CCCCCC3)c2O)C1 | > 100
5 | Oc1c(CN2CCCCCC2)ccc2c1CCN(CCCCc1ccc(F)cc1)C2 | 5.1

The next lines start with the values.

Row | IC50 [µM] | Compound
6 | 1.1 | Oc1c(CN2CCCCCC2)ccc2c1CCN(CCCCCC(c1ccccc1)c1ccccc1)C2
7 | 2.5 | Oc1c(CN2CCCCCC2)ccc2c1CCN(CCCCC=C(c1ccccc1)c1ccccc1)C2
8 | 0.46 | Oc1c(CN2CCCCCC2)ccc2c1CCN(CCCC(c1ccccc1)c1ccccc1)C2
9 | 15 | Oc1c(CN2CCCCCC2)ccc2c1CCN(CCCCc1ccccc1)C2
10 | 7.4 | Oc1c(CN2CCCCCC2)ccc2c1CCN(CCC(c1ccccc1)c1ccccc1)C2
11 | 4.8 | Oc1c(CN2CCCCCC2)ccc2c1CCN(CCCCC(c1ccccc1)c1ccccc1)C2
